Data set [1] can be described thus: measurement of the solubility of compounds in water and diluted hydrochloric acid. It is filed as physicochemical. The conditions noted are these: thermodynamic from solid. How it is done: Example 117: measurement of the solubility of compounds in water and diluted hydrochloric acid
The compounds were dissolved in acetonitrile (LCMS pure) and prepared into standard samples having the concentration gradient of 1000 µg/mL, 500 µg/mL, 250 µg/mL, 125 µg/mL, 62.5 µg/mL, and 31.25 µg/mL.
About 1.0 mg of the powder of the compound to be tested was weighed and added to 0.3 mL of ultrapure water (pH-6), the resulting mixture was shaked thoroughly at room temperature overnight and centrifuged, and the supernatant was taken and diluted 10 times with acetonitrile. The sample was analyzed after mixing evenly.
153.8 µL of 6 M HCl was pipetted, 20 mL of water was added, and mixed evenly to prepare diluted hydrochloric acid solution A (pH-1.5). About 1.0 mg of the powder of the compound to be tested was weighed and added to 0.3 mL of diluted hydrochloric acid solution A, the resulting mixture was shaked thoroughly at room temperature for 1 hour and centrifuged, and the supernatant was taken and diluted 10 times with acetonitrile. The sample was analyzed after mixing evenly.
The standard sample and the sample to be tested were analyzed by Shimadzu LCMS-2020, where chromatographic column was Skim-psck GIST 5 µm C18 2.1*[…]; mobile phase A was water and mobile phase B was methanol; and flow rate was 0.3 mL/min. The gradient of B was as the following: 0 min: 10%; 0-1.0 min: 10%; 1.0-2.5 min: 95%; 3.0-4.0 min: 95%; 4.0-4.1 min: 10%; 4.1-6.0 min: 10%.
The relationship between the concentration and peak area of the standard sample was ploted into a standard curve, and the concentration of the sample to be tested was calibrated using this standard curve. Compound solubility = concentration of the sample to be tested × 10 [formula]

The next data set has as its target LRRK2 (Homo sapiens, UniProt Q5S007). The data set is described as follows: experiment of inhibiting kinase activity, LRRK2. The conditions noted are these: for pIC50: kinase activity assay, Table 3. The class given is biochemical. Here is the method:
(§1) The inhibition rates of tested compounds on JAK1, JAK2, JAK3, TYK2, CDK7, CDK9, EGFR (T790M) and LRRK2 kinases were measured. The test concentrations of the compounds were 10 nM and 100 nM, and the detection was performed by replicate wells. Alternatively, compounds were 3-fold serial diluted from 10 µM for 10 concentrations in replicate wells.

For the next data set, the target named is T1, LRRK2 (G2019S) (Homo sapiens, UniProt Q5S007, G2019S).
T1 construct: pcDNA5-FRT/TO-FLAG LRRK2 (G2019S, full-length); expressed in transfected cells; host or cells: HEK293T
The data set is described as follows: detection of phosphorylated S935 in HEK293T overexpressing full-length LRRK2 (G2019S). The class given is cell-based. The settings on record: pS935, HEK293T overexpressing LRRK2 (G2019S), 1.5 hours. Here is the method:
(§2) Detection of phosphorylated S935 in HEK293T Overexpressing full-length LRRK2 (G2019S) or wild-type LRRK2
(§3) HEK293T cells was inoculated into a 6-well plate and cultured overnight. The next day, they were transiently transfected with plasmid pcDNA5-FRT/TO-FLAG LRRK2 (G2019S, full-length) or pCMV-flag-WT LRRK2 (full-length) by using Superfect transfection reagent and cultured at 37°C and 5% CO2 for 20-24 hours. The next day, cells were collected, resuspended at a density of 0.48×10^6 cells/ml, and inoculated into a 384-well plate at 50 microliters/well. Compound or DMSO solutions (volume ratio of 0.5%) were added by Tecan, and cultured at 37°C and 5% CO2 for 1.5 hours. After 1.5 hours, the supernatant was discarded, 50 microliters of 8% PFA were added in each well to fix the cells, and the cells were incubated at room temperature for 1 hour. The plate was washed with EL406 plate washer for three times, with 115 microliters of PBST per well, and the culture plate was patted to dryness. The cells were blocked with 50 microliters/well of Licor Odyssey blocking solution (0.1% Tween 20) at room temperature for 1.5 hours. The blocking solution was discarded and the culture plate was patted to dryness. 20 microliters of primary antibody (1:1000(pS935), diluted with Licor Odyssey buffer (0.1% Tween20)) was added into each well, and incubated at 4 °C overnight. The next day, the first antibody was discarded and washing was performed with PBST for five times. 20 microliters of secondary antibody (diluted with Licor Odyssey buffer (0.1% Tween20) at 1:500 and stained with DNA at 1:2000) were added into each well, and incubated at room temperature for 1 hour. The second antibody was discarded, and washing was performed for three times with PBST. The fluorescence intensity was measured by LICOR Odyssey imager Scanner, and the data was analyzed.

A further data set has as its target T2, wild-type LRRK2 (Homo sapiens, UniProt Q5S007).
T2 construct: pCMV-flag-WT LRRK2 (full-length); expressed in transfected cells; host or cells: HEK293T
The data set is described as follows: detection of phosphorylated S935 in HEK293T overexpressing wild-type LRRK2. It is filed as cell-based. The conditions noted are these: pS935, HEK293T overexpressing wild-type LRRK2, 1.5 hours. Here is the method:
as §2, §3

The target in the next data set is JAK2 (Homo sapiens, UniProt O60674). Put plainly: experiment of inhibiting kinase activity (Caliper mobility shift assay), JAK2. The conditions noted are these: read-out: inhibition rate JAK2; for inhibition at 0.01 µM: at 10 nM. It is filed as biochemical. The method in brief: (§4)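 Replicate wells; top concentration 10 µM, 3-fold steps, 10 points (or 10 nM/100 nM single doses). Enzyme preincubated 10 min RT with compound; ATP/substrate start; stop solution; Caliper conversion read. IC50 by Hill-slope curve fit.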
Sequence of JAK2 (O60674 whole entry): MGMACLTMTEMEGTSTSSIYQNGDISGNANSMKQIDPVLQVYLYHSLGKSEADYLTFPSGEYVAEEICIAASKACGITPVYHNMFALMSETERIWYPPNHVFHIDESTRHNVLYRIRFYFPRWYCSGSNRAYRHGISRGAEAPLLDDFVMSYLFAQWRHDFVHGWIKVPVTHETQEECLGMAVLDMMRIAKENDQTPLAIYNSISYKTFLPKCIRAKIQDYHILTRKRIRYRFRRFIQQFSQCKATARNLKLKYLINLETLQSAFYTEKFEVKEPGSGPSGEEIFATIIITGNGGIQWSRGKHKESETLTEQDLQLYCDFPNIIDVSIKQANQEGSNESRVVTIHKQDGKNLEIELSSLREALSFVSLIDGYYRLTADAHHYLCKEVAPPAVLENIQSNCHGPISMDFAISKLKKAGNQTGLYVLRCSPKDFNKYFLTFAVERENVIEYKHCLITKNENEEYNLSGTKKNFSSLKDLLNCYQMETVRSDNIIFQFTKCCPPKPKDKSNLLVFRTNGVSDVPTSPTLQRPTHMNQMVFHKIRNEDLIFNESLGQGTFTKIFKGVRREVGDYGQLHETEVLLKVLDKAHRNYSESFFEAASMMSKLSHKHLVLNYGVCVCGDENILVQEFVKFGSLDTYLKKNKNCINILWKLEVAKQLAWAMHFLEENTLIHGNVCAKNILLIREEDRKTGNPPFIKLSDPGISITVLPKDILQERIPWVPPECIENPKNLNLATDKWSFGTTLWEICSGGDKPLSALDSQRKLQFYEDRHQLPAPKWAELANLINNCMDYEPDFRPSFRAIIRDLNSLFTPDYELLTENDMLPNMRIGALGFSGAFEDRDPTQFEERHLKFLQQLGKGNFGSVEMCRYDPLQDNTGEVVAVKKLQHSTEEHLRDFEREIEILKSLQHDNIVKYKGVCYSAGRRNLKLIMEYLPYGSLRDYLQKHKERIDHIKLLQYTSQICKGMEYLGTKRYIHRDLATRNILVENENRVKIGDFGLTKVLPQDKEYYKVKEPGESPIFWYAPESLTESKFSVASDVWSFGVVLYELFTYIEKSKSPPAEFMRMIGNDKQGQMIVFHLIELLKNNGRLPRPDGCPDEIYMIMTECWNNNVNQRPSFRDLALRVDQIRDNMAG

The target of another data set is JAK1 (Homo sapiens, UniProt P23458). Put plainly: experiment of inhibiting kinase activity (Caliper mobility shift assay), JAK1. It is filed as biochemical. The settings on record: read-out: inhibition rate JAK1; for inhibition at 0.01 µM: at 10 nM. The method in brief: as §4
Sequence of JAK1 (P23458 whole entry): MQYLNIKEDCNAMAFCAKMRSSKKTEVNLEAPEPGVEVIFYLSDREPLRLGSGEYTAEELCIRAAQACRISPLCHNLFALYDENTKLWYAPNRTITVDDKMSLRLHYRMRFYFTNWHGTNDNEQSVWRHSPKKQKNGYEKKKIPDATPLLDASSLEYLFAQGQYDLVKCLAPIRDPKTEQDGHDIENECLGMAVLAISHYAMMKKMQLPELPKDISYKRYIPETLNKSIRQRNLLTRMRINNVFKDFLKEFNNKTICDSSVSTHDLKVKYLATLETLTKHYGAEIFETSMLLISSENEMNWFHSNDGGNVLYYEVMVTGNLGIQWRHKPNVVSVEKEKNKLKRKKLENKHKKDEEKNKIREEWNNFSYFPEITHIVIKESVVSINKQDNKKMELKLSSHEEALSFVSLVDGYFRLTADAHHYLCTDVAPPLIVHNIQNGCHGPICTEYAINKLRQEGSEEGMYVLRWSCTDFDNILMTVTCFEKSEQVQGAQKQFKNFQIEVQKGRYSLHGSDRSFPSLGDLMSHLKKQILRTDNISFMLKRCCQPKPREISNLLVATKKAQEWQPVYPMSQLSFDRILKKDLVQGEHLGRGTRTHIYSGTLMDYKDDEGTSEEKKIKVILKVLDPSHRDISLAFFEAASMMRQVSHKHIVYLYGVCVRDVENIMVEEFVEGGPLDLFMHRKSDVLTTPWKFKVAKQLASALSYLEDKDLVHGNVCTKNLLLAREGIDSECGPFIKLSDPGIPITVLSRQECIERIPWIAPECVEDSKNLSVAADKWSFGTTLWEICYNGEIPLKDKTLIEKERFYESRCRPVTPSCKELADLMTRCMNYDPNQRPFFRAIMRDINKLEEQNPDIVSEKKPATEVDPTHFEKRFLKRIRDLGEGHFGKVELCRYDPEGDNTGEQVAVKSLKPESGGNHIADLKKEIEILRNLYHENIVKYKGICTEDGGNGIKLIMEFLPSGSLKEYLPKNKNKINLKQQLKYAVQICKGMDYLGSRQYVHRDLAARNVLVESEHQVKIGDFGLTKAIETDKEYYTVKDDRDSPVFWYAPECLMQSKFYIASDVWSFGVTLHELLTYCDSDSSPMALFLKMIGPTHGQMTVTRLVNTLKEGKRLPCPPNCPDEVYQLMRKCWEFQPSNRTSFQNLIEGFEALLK
In the next data set the target is TYK2 (Homo sapiens, UniProt P29597). The data set is described as follows: experiment of inhibiting kinase activity, TYK2. The class given is biochemical. The settings on record: read-out: inhibition rate TYK2; for inhibition at 0.01 µM: at 10 nM. Here is the method:
as §1

The target in a further data set is CDK7 (Homo sapiens, UniProt P50613). The data set is described as follows: experiment of inhibiting kinase activity (Caliper mobility shift assay), CDK7. The class given is biochemical. The settings on record: at 100 nM; read-out: inhibition rate CDK7. Summed up:
as §4

A further data set concerns the target T3, JAK3 (Homo sapiens, UniProt P52333).
T3 sequence (P52333 1-1124): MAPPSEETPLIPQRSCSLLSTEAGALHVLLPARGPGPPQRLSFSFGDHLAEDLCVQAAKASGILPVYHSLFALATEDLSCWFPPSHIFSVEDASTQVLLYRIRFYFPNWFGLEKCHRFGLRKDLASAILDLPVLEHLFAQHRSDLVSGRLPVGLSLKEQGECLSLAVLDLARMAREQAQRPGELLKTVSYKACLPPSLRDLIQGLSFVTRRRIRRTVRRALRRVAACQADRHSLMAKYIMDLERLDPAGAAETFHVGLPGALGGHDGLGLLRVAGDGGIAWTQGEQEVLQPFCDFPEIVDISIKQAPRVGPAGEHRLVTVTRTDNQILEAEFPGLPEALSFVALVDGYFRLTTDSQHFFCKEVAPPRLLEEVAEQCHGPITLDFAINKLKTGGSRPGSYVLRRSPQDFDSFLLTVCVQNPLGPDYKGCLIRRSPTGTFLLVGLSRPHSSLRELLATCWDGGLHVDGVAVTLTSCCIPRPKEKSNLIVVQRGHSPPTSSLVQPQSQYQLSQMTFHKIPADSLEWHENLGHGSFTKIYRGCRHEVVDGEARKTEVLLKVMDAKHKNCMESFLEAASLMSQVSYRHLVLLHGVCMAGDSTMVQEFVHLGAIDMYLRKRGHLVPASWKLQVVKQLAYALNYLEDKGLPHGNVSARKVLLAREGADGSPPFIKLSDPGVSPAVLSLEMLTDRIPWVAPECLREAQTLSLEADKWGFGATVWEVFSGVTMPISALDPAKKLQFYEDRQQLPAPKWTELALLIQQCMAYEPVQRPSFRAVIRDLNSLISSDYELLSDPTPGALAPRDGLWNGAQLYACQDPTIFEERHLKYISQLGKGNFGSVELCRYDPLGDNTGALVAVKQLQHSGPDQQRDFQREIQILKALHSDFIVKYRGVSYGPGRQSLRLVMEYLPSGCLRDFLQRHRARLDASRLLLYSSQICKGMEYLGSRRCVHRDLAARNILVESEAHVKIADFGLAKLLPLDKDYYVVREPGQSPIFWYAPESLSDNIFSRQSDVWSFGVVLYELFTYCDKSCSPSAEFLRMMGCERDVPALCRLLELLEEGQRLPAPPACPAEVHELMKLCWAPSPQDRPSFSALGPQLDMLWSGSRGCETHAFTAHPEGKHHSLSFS
Put plainly: experiment of inhibiting kinase activity (Caliper mobility shift assay), JAK3. It is filed as biochemical. The settings on record: at 100 nM; read-out: inhibition rate JAK3. The method in brief: as §4

The target in another data set is CDK9 (Homo sapiens, UniProt P50750). Put plainly: experiment of inhibiting kinase activity (Caliper mobility shift assay), CDK9. The class given is biochemical. The settings on record: for inhibition at 0.01 µM: at 10 nM; for pIC50: kinase activity assay, Table 3. Summed up: as §4
Sequence of CDK9 (P50750 whole entry): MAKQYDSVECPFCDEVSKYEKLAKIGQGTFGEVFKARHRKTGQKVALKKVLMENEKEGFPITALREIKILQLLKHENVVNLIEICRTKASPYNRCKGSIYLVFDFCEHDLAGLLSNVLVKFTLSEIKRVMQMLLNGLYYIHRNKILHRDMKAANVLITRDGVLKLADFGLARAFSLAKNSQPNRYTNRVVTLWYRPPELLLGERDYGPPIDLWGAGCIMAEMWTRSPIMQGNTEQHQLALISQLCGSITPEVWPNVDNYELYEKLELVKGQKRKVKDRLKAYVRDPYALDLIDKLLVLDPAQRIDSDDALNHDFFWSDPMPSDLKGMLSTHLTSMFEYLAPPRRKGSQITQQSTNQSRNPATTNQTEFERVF
Sequence of CDK9 (O60563 whole entry partner): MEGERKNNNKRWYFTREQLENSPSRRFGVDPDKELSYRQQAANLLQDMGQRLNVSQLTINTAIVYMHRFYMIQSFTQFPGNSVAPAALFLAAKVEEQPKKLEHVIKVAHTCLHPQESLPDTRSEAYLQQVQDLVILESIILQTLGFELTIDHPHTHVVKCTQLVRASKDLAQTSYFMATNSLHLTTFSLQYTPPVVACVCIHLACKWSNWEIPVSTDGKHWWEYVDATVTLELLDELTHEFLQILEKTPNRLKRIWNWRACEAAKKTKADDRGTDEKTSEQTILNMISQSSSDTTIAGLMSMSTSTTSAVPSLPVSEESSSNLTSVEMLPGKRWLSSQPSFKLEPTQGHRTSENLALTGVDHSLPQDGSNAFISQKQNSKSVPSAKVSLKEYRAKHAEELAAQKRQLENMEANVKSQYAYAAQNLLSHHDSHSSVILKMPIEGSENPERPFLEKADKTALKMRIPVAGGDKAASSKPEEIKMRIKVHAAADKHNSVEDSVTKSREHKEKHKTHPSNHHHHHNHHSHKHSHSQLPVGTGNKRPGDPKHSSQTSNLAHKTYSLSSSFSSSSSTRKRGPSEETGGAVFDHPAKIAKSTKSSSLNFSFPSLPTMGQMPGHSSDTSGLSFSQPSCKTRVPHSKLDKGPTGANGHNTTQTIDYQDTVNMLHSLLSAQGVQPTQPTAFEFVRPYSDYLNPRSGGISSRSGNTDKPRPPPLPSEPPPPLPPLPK
A further data set has as its system MV-4-11 cells. Put plainly: CDK9 cell activity test (Cell Titer-GLO cell growth inhibition), MV-4-11. It is filed as cell-based. The conditions noted are these: Homo sapiens, MV4-11, 72 hours. How it is done: In these experiments, the cell line MV-4-11 was cultured in IMDM culture solution (containing 100 U/mL penicillin and 0.1 g/L streptomycin), the cell line HCC1187 was cultured in RPMI-1640 culture solution (containing 100 U/mL penicillin and 0.1 g/L streptomycin) containing 10% fetal bovine serum, the cell line Mia Paca-2 was cultured in DMEM (containing 100 U/mL penicillin and 0.1 g/L streptomycin) containing 10% fetal bovine serum and 2.5% horse serum, and the cell line A375 was cultured in RPMI-1640 culture solution (containing 100 U/mL penicillin and 0.1 g/L streptomycin) containing 10% fetal bovine serum. All cells were cultured in a saturated humidity incubator with 37 °C and 5% CO2.
When MV-4-11 cells, HCC-1187 cells, Mia Paca-2 cells and A375 cells grew to 80% -90% confleuncy, they were digested with trypsin, resuspended, counted and diluted to a certain cell density with complete medium, and inoculated into 96-well plate at 100 µL/well. With complete medium as background control, they were cultured overnight in a saturated humidity incubator with 37°C and 5% CO2. The compound was diluted to 200-fold of the final concentration using DMSO, 3 µL of DMSO storage solution of the above compound was added to 197 µL of complete medium, 50 µL of compound diluted in medium was added to cells in each well, and cultivated in a saturated humidity incubator with 37°C and 5% CO2 for 72 hours. After 72 hours, the culture plate was placed at room temperature for equilibrium, and 40 µl of Cell Titer-GLO® reagent was added to each well. The cells were lysed by mixing evenly for 2 minutes using a shaker, incubated at room temperature for 60 minutes to stabilize the chemiluminescence signal, and the chemiluminescence was read by PE EnVision microtiter plate reader. The cell growth inhibition rate Inh%=(DMSO well - compound treatment well)/(DMSO well - background well)×100 was calculated, and the cell growth IC50 value was obtained by fitting with GraphPad Prism 5 .

pEC50, pIC50: −log10 of the molar value. Values after ≈ are worked out from the molar mass of the structure shown. Some results are limits rather than exact numbers.

Sequence of TYK2 (P29597 whole entry): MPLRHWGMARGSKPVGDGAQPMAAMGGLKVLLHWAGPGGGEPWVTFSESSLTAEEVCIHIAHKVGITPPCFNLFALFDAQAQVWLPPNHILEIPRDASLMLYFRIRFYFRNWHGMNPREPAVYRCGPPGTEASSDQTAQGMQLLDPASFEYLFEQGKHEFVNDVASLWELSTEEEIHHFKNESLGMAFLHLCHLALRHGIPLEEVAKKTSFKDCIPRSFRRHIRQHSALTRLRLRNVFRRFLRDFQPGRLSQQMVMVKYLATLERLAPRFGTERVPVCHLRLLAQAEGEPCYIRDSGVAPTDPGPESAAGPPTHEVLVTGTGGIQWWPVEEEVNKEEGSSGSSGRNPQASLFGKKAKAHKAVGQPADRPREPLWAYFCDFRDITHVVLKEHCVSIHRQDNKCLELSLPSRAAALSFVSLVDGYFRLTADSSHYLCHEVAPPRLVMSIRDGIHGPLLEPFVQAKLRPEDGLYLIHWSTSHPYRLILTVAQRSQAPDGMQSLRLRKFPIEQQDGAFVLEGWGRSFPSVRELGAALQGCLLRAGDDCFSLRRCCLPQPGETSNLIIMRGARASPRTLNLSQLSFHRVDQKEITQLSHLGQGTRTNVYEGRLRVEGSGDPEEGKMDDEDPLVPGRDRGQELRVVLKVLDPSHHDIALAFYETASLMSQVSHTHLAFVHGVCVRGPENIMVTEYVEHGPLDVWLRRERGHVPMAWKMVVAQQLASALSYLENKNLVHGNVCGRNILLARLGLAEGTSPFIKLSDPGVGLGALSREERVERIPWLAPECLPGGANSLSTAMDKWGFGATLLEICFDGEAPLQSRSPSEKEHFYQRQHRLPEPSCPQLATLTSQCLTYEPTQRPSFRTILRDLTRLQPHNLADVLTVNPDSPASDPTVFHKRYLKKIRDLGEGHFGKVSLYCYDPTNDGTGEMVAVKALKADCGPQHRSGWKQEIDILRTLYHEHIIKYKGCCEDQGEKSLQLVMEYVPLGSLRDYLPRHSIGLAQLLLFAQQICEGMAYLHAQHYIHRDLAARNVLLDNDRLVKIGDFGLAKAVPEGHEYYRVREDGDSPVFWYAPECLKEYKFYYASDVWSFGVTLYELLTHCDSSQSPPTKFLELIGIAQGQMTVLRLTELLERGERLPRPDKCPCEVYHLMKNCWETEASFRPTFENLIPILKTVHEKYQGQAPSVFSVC

`CN1CCOCCOc2ccc(Nc3nc(O[C@H]4CC[C@@](C)(O)CC4)c4cc[nH]c4n3)cc2OCC1` [Example 6, 1-methyl-4-((2-((7-methyl-2,3,6,7,8,9-hexahydro-5H-benzo[b][1,4,7]trioxa[10]azacyclododecan-12-yl)amino)-7H-pyrrolo[2,3-d]pyrimidin-4-yl)oxy)cyclohexanol] showed a solubility at 1 h in data set [1] (simulated gastric fluid, diluted hydrochloric acid solution A (pH-1.5), room temperature, 1 hour) of more than 3070 µg/mL. This compound returned a solubility in data set [1] (ultrapure water (pH-6), room temperature overnight) of 368 µg/mL (≈ 740 µM). On LRRK2, this compound gave a pIC50 of more than 7.30. Besides, the pEC50 at LRRK2 (G2019S) and on wild-type LRRK2 was more than 6.30 in each case.
Turning to `CN1CCOc2ccc(Nc3ncc(C(F)(F)F)c(Nc4ccccc4P(C)(C)=O)n3)cc2OCC1` [Example 83, dimethyl(2-((2-((4-methyl-3,4,5,6-tetrahydro-2H-benzo[b][1,4,7]dioxazolin-9-yl)amino)-5-(trifluoromethyl)pyrimidin-4-yl)amino)phenyl)phosphine oxide], the inhibition at 0.01 µM on LRRK2 (at 10 nM, read-out: inhibition rate LRRK2) was more than 80%; on JAK2 it was more than 80%; at JAK1 it was 25 to 39%; on TYK2 it was 40 to 79%. Moreover, on LRRK2, the pIC50 was more than 7.30. For the same compound, the negative logarithm of the EC50 (pEC50) on LRRK2 (G2019S) and at wild-type LRRK2 was more than 6.30 in each case.
As for `CN1CCOCCOc2ccc(Nc3ncc(F)c(-c4ccc(C(=O)NCC#N)cc4)n3)cc2OCC1` [Example 44, N-(cyanomethyl)-4-(5-fluoro-2-((7-methyl-2,3,6,7,8,9-hexahydro-5H-benzo[b] [1,4,7]trioxa[10]azacyclododecan-12-yl)amino)pyrimidin-4-yl)benzamide], the inhibition at 0.1 µM on CDK7 was 40 to 79%; at LRRK2 (at 100 nM, read-out: inhibition rate LRRK2), 40 to 79%; at JAK2 (at 100 nM) it was more than 80%; at JAK3, 40 to 79%; at CDK9 (at 100 nM, read-out: inhibition rate CDK9), more than 80%; at JAK1 (at 100 nM), more than 80%. Further, the inhibition at 0.1 µM at TYK2 (at 100 nM) is more than 80%. Besides, the inhibition at 0.01 µM on JAK2 was more than 80%; at CDK9 (read-out: inhibition rate CDK9), 40 to 79%; on JAK1 it was 25 to 39%; on TYK2, 40 to 79%. Moreover, the negative-log IC50 (pIC50) at CDK9 was more than 7.30; with MV-4-11 cells it was more than 7.00.
With `COc1ccc(F)cc1-c1nc(Nc2ccc3c(c2)OCCN(C)CCOCCO3)ncc1F` [Example 114, N-(5-fluoro-4-(5-fluoro-2-methoxyphenyl)pyrimidin-2-yl)-7-methyl-2,3,6,7,8,9-hexahydro-5H-benzo[b][1,4,7]trioxa[10]azacyclododecan-12-amine], the inhibition at 0.01 µM at CDK9 (read-out: inhibition rate CDK9) was 40 to 79%. The pIC50 was more than 7.30 at CDK9 and 6.00 to 7.00 in the data set with MV-4-11 cells.

These data come from patent EP4592286A1, “MACROCYCLIC NITROGEN-CONTAINING CROWN ETHER COMPOUND AND USE THEREOF AS PROTEIN KINASE INHIBITOR” (Artivila Biopharma, priority 2022, dated 2024).
